# Test results taken from patent US6797077B2, “Latex paint remover” (Pentagonal Holdings, Inc., priority 2000, dated 2004).
# “Also recorded” adds a separate entry of the source.
# Experiments:
# Format in all cases: in vivo
# [1] = Acute oral toxicity, Federal Hazardous Substances Act 16 CFR 1500.3(c)(2)(i)
# Method: (§1) A cleaning composition composed of pure IBIB was tested for toxicity, skin irritation and eye irritation according to the protocol of the Federal Hazardous Substances Act, 16 CFR 1500.3(c)(2)(i), 1500.41 and 1500.42.
# [2] = Eye irritation, 16 CFR 1500.42 and 1500.3(c)(4)
# Method: as §1
# [3] = Skin irritation, 16 CFR 1500.41 and 1500.3(c)(4)
# Method: as §1
smiles,measurement,setting,value
"CC(C)COC(=O)C(C)C [IBIB, Isobutyl isobutyrate]",Acute oral toxicity conclusion,[1]; 16 CFR 1500.3(c)(2)(i),non-toxic; also recorded: Not considered as toxic
same,Acute Oral LD50,"[1]; dose level 5,000 mg/kg",Acute Oral LD50 greater than five (5) grams per gram body weight
same,Eye irritation conclusion,[2]; 16 CFR 1500.42,not considered to be a primary eye irritant
same,Maximum Mean Total Score (Average),[2]; eye irritation,3.3
same,Skin irritation conclusion,[3]; 16 CFR 1500.41,not considered to be a primary skin irritant
same,Primary Dermal Irritation Score (Average),[3]; in vivo,2.4
